Data on eleven compounds can be found in patent US20230151021A1, “Compounds and Compositions for Treating Hematologic Malignancies” (priority 2020, published 2023).

Where a name gives a salt, the structure may show the parent alone. A value given as a limit tells only on which side of the number the result lay.

In one series the test system is Raji cells. In words: cells. Type of series: cell-based, human. The settings on record: 100 nM for 72 h.
For series [1], the system named is 13 cell lines representing a range of hematologic malignancies. Description: Cell viability in panel of hematologic malignancy derived cell lines. The settings on record: 100 nM, 72 hours.
Protocol: Cell viability was determined after 72 hours by detecting luminescence. ALL, acute lymphoblastic leukemia; BL, Burkitt's lymphoma; DLBCL, diffuse large B-cell lymphoma; MCL, mantle cell lymphoma; AML, acute myeloid leukemia; MM, multiple myeloma; LCLs, lymphoblastoid cell lines.
(§2) 5000 cells as indicated were cultured in 96-well plate with 100 μl of media. On the next day, Brusatol or associated analogs were added once to the cells without media change. After treatment, the cells were incubated with 100 μl buffer for 10 minutes at room temperature following the instructions of CellTiter-Glo kit (Promega, Madison, Wis.). Luminescence was detected using a multi-mode reader Cytation 5 (BioTek, Winooski, Vt.). Brusatol or its analogs are dissolved in 100% ethanol and diluted in 1×PBS for treatment. Two independent experiments done in duplicates were performed.
For series [2] the following is noted: plasma, 1 h.
The conditions of series [3]: plasma, 1 h. The source holds these as a separate data set.
A further series has as its system Jeko-1. In words: IC50 assays of biotin-conjugated compounds in multiple PDXs and lymphoma cells. The settings on record: Homo sapiens.
The next series has as its system PDX129. The series is described as above. The note with it: Homo sapiens.
The subject of a further series is PDX223. The series is described as above. The settings on record: Homo sapiens.
In another series the test system is Toledo. The description is as above. The settings on record: Homo sapiens.
A further series deals with Pfeiffer. The description is as above. The note with it: Homo sapiens.
For another series, the target named is T1, PI3Kγ (Homo sapiens, UniProt P48736).
T1 construct: endogenous in cells; host or cells: SU-DHL-4 cells (lysate)
In words: Biotin pull-down / competitive binding assay in SU-DHL-4 cell lysates. The note with it: SU-DHL-4 lysate, without parent Brusatol. As to the method:
(§1) 30 μg of purified GST-tagged proteins were pre-cleared with Dynabeads M-280 Streptavidin (Invitrogen, Carlsbad, Calif., USA). The supernatants were collected and incubated with Dynabeads M-280 Streptavidin and 0, 300 μM, or 500 μM of biotin-conjugated Brusatol derivatives (51052) overnight at 4° C. For the competitive binding assays, cell lysates from SU-DHL-4 cells were incubated with the biotin-conjugated Brusatol derivative (51048) alone or together with Brusatol as well as Dynabeads M-280 Streptavidin. The complexes were harvested and washed with PBS. The collected beads were mixed with SDS loading buffer for further analysis.

The target of another series is GST-tagged PI3Kγ (Homo sapiens, UniProt P48736). Description: Pull-down assay with purified GST-tagged protein. The note with it: 0, 300 μM, or 500 μM. It is filed as binding. On the procedure: PIK3CG cDNA (Plasmid #20574) was purchased from Addgene and cloned into a pGEX-6P-1 vector (GE Healthcare, Madison, Wis., USA). This GST-tagged PIK3CG plasmid was transformed into E. coli BL21 (DE3)-competent cells (Life Technologies, Carlsbad, Calif., USA) for in vitro expression according to Molecular Cloning (Third Edition).
as §1

T1 sequence (P48736 whole entry): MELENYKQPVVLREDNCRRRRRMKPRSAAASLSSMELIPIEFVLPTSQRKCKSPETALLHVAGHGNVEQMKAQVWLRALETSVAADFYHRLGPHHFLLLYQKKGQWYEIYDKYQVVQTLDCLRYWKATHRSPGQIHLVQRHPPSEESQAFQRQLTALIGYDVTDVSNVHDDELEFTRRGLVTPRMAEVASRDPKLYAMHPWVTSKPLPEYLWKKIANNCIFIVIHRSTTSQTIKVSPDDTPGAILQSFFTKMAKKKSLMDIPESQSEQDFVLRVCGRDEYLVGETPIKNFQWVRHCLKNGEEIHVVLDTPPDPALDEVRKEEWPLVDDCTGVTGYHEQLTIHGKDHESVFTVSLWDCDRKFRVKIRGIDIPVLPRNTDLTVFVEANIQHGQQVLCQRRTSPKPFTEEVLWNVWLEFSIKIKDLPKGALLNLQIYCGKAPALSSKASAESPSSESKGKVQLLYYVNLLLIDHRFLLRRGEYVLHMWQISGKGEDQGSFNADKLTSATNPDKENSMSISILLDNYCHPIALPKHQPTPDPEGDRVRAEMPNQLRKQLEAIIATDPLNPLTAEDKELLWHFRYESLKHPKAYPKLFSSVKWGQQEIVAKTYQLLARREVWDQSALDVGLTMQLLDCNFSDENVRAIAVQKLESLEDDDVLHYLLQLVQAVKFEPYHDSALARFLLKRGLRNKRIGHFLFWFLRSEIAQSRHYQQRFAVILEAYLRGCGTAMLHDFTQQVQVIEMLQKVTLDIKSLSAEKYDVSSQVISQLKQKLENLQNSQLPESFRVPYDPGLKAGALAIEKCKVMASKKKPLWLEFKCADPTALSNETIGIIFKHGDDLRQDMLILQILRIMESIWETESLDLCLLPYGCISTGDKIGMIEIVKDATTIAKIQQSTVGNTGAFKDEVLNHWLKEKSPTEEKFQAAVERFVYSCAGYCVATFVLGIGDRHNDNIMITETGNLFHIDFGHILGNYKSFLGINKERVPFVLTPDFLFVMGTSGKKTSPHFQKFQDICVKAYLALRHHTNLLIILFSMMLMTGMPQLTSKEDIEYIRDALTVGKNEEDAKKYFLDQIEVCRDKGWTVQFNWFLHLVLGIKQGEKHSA
GST-tagged PI3Kγ, sequence (P48736 whole entry): as above
Protocol for Jeko-1: as §2
Protocol for PDX129: as §2
Protocol for PDX223: as §2
Protocol for Pfeiffer: as §2
Protocol for Toledo: as §2

For the compound `COC(=O)[C@@]12OC[C@]34C([C@@H](O)[C@@H]1O)[C@@]1(C)CC(=O)C(OC(=O)C5CCCN5C(=O)OC(C)(C)C)=C(C)[C@@H]1C[C@H]3OC(=O)[C@H](OC(=O)C=C(C)C)[C@@H]24` (stereo partly drawn) [Compound 11, 1-(tert-butyl) 2-((1R,2S,3S,3aS,3a1R,4R,6aR,7aR,11aS)-1,2-dihydroxy-3-(methoxycarbonyl)-8,11a-dimethyl-4-((3-methylbut-2-enoyl)oxy)-5,10-dioxo-1,3,3a,4,5,6a,7,7a,10,11,11a,11b-dodecahydro-2H-3,3a1-(epoxymethano)dibenzo[de,g]chromen-9-yl)(2S)-pyrrolidine-1,2-dicarboxylate], the “activity on viability of Raji cells (in words)” value (“activity on viability” for short) in the series with Raji cells is on record as “moderate inhibition”.
As to `COC(=O)[C@@]12OC[C@]34C([C@@H](O)[C@@H]1O)[C@@]1(C)CC(=O)C(OC(=O)[C@@H](N)Cc5ccccc5)=C(C)[C@@H]1C[C@H]3OC(=O)[C@H](OC(=O)C=C(C)C)[C@@H]24` (stereo partly drawn) [Compound 14, methyl (1R,2S,3S,3aS,3a1R,4R,6aR,7aR,11aS)-9-((L-phenylalanyl)oxy)-1,2-dihydroxy-8,11a-dimethyl-4-((3-methylbut-2-enoyl)oxy)-5,10-dioxo-1,4,5,6a,7,7a,10,11,11a,11b-decahydro-2H-3,3a1-(epoxymethano)dibenzo[de,g]chromene-3(3aH)-carboxylate], in [1], the “inhibition of cell viability (in words)” value is on record as “significantly inhibit cell viability”.
`COC(=O)[C@@]12OC[C@]34C([C@@H](O)[C@@H]1O)[C@@]1(C)CC(=O)C(OC(=O)CNC(=O)CN)=C(C)[C@@H]1C[C@H]3OC(=O)[C@H](OC(=O)C=C(C)C)[C@@H]24` (stereo partly drawn) [Compound 20, methyl (1R,2S,3S,3aS,3a1R,4R,6aR,7aR,11aS)-9-((glycylglycyl)oxy)-1,2-dihydroxy-8,11a-dimethyl-4-((3-methylbut-2-enoyl)oxy)-5,10-dioxo-1,4,5,6a,7,7a,10,11,11a,11b-decahydro-2H-3,3a1-(epoxymethano)dibenzo[de,g]chromene-3(3aH)-carboxylate]: the “activity on viability” value in the series on Raji cells was “potent activities comparable to or higher than the parent brusatol”.
Turning to `COC(=O)[C@@]12OC[C@]34C([C@@H](O)[C@@H]1O)[C@@]1(C)CC(=O)C(OC(=O)C[C@H](C)NC(=O)C[C@H](C)N)=C(C)[C@@H]1C[C@H]3OC(=O)[C@H](OC(=O)C=C(C)C)[C@@H]24` (stereo partly drawn) [Compound 21, methyl (1R,2S,3S,3aS,3a1R,4R,6aR,7aR,11aS)-9-(((S)-3-((S)-3-aminobutanamido)butanoyl)oxy)-1,2-dihydroxy-8,11a-dimethyl-4-((3-methylbut-2-enoyl)oxy)-5,10-dioxo-1,4,5,6a,7,7a,10,11,11a,11b-decahydro-2H-3,3a1-(epoxymethano)dibenzo[de,g]chromene-3(3aH)-carboxylate], in the series with Raji cells, the “activity on viability” value was “potent activities comparable to or higher than the parent brusatol”.
Still for that read-out and setting: as for `COC(=O)[C@@]12OC[C@]34C([C@@H](O)[C@@H]1O)[C@@]1(C)CC(=O)C(OC(=O)[C@H](C)NC(=O)[C@H](C)N)=C(C)[C@@H]1C[C@H]3OC(=O)[C@H](OC(=O)C=C(C)C)[C@@H]24` (stereo partly drawn) [Compound 22, methyl (1R,2S,3S,3aS,3a1R,4R,6aR,7aR,11aS)-9-((L-alanyl-L-alanyl)oxy)-1,2-dihydroxy-8,11a-dimethyl-4-((3-methylbut-2-enoyl)oxy)-5,10-dioxo-1,4,5,6a,7,7a,10,11,11a,11b-decahydro-2H-3,3a1-(epoxymethano)dibenzo[de,g]chromene-3(3aH)-carboxylate], the entry is “not active”; as for `COC(=O)[C@@]12OC[C@]34C([C@@H](O)[C@@H]1O)[C@@]1(C)CC(=O)C(OC(=O)CNC(=O)CNC(=O)CN)=C(C)[C@@H]1C[C@H]3OC(=O)[C@H](OC(=O)C=C(C)C)[C@@H]24` (stereo partly drawn) [Compound 23, methyl (1R,2S,3S,3aS,3a1R,4R,6aR,7aR,11aS)-9-((glycylglycylglycyl)oxy)-1,2-dihydroxy-8,11a-dimethyl-4-((3-methylbut-2-enoyl)oxy)-5,10-dioxo-1,4,5,6a,7,7a,10,11,11a,11b-decahydro-2H-3,3a1-(epoxymethano)dibenzo[de,g]chromene-3(3aH)-carboxylate], “potent activities comparable to or higher than the parent brusatol”.
`COC(=O)[C@@]12OC[C@]34C([C@@H](O)[C@@H]1O)[C@@]1(C)CC(=O)C(OC(=O)C[C@H](C)N)=C(C)[C@@H]1C[C@H]3OC(=O)[C@H](OC(=O)C=C(C)C)[C@@H]24` (stereo partly drawn) [Compound 26-TFA]: in series [2], the “Plasma stability remaining % at 60 min, rat” value came out at 39%. Besides, the “Plasma stability remaining % at 60 min, human” value in series [3] turned out to be 44%.
For the compound `COC(=O)[C@@]12OC[C@]34C([C@@H](O)[C@@H]1O)[C@@]1(C)CC(=O)C(OC(=O)[C@@H]5CCCN5)=C(C)[C@@H]1C[C@H]3OC(=O)[C@H](OC(=O)C=C(C)C)[C@@H]24` (stereo partly drawn) [Compound 31, (1R,2S,3S,3aS,3a1R,4R,6aR,7aR,11aS)-1,2-dihydroxy-3-(methoxycarbonyl)-8,11a-dimethyl-4-((3-methylbut-2-enoyl)oxy)-5,10-dioxo-1,3,3a,4,5,6a,7,7a,10,11,11a,11b-dodecahydro-2H-3,3a1-(epoxymethano)dibenzo[de,g]chromen-9-yl L-prolinate], the “inhibition of cell viability (in words)” value in series [1] is listed as “significantly inhibit cell viability”. Also, the “activity on viability” value in the series on Raji cells was “potent activities comparable to or higher than the parent brusatol”.
As for `CC(C)=CC(=O)O[C@H]1C(=O)O[C@@H]2C[C@H]3C(C)=C(O)C(=O)C[C@]3(C)C3[C@@H](O)[C@H](O)[C@@]4(C(=O)NCCCCCCNC(=O)CCC[C@@H]5SC[C@@H]6NC(=O)N[C@@H]65)OC[C@]32[C@@H]14` (stereo partly drawn) [Compound 51046, (1R,2S,3S,3aS,3a1R,4R,6aR,7aR,11aS)-1,2,9-trihydroxy-8,11a-dimethyl-5,10-dioxo-3-((6-(4-((3aS,4S,6aR)-2-oxohexahydro-1H-thieno[3,4-d]imidazol-4-yl)butanamido)hexyl)carbamoyl)-1,3,3a,4,5,6a,7,7a,10,11,11a,11b-dodecahydro-2H-3,3a1-(epoxymethano)dibenzo[de,g]chromen-4-yl 3-methylbut-2-enoate], the IC50 in the series on Jeko-1 was determined as 3.01 µM; with PDX129, 1.64 µM; with PDX223, 8.97 µM; in the series with Toledo, 0.494 µM; in the series on Pfeiffer, 8.91 µM.
Consider `COC(=O)[C@@]12OC[C@]34C([C@@H](O)[C@@H]1O)[C@@]1(C)CC(=O)C(OC(=O)CCCC[C@@H]5SC[C@@H]6NC(=O)N[C@@H]65)=C(C)[C@@H]1C[C@H]3OC(=O)[C@H](OC(=O)C=C(C)C)[C@@H]24` (stereo partly drawn) [Compound 51048, methyl (1R,2S,3S,3aS,3a1R,4R,6aR,7aR,11aS)-1,2-dihydroxy-8,11a-dimethyl-4-((3-methylbut-2-enoyl)oxy)-5,10-dioxo-9-((5-((3aS,4S,6aR)-2-oxohexahydro-1H-thieno[3,4-d]imidazol-4-yl)pentanoyl)oxy)-1,4,5,6a,7,7a,10,11,11a,11b-decahydro-2H-3,3a1-(epoxymethano)dibenzo[de,g]chromene-3(3aH)-carboxylate], for which the IC50 with Jeko-1 is 1.19 µM; in the series with PDX129 it was 1.73 µM; in the series on PDX223 it was 3.56 µM; in the series on Toledo, more than 10 µM; in the series with Pfeiffer it was 3.17 µM. Moreover, the “binding activity with PI3Kγ (in words)” value at PI3Kγ is “relatively strong”.
With `COC(=O)[C@@]12OC[C@]34C([C@@H](O)[C@@H]1O)[C@@]1(C)CC(=O)C(OC(=O)CCCCCNC(=O)CCCC[C@@H]5SC[C@@H]6NC(=O)N[C@@H]65)=C(C)[C@@H]1C[C@H]3OC(=O)[C@H](OC(=O)C=C(C)C)[C@@H]24` (stereo partly drawn) [Compound 51052, methyl (1R,2S,3S,3aS,3a1R,4R,6aR,7aR,11aS)-1,2-dihydroxy-8,11a-dimethyl-4-((3-methylbut-2-enoyl)oxy)-5,10-dioxo-9-((6-(5-((3aS,4S,6aR)-2-oxohexahydro-1H-thieno[3,4-d]imidazol-4-yl)pentanamido)hexanoyl)oxy)-1,4,5,6a,7,7a,10,11,11a,11b-decahydro-2H-3,3a1-(epoxymethano)dibenzo[de,g]chromene-3(3aH)-carboxylate], the IC50 with Jeko-1 came to 0.028 µM; in the series on PDX129, 0.076 µM; in the series on PDX223, 0.108 µM; in the series with Toledo, 0.388 µM; in the series with Pfeiffer it was 0.079 µM. For the same compound, at GST-tagged PI3Kγ, the “association with GST-tagged PI3Kγ in vitro (in words)” value is reported as “formed a complex”.
